Source: publication PMC3201767 (Chemical communications (Cambridge, England), 2011)

T1: His6-Pd2,6ST(16–497) (Photobacterium damselae, UniProt O66375)
T1 sequence (O66375 16-497): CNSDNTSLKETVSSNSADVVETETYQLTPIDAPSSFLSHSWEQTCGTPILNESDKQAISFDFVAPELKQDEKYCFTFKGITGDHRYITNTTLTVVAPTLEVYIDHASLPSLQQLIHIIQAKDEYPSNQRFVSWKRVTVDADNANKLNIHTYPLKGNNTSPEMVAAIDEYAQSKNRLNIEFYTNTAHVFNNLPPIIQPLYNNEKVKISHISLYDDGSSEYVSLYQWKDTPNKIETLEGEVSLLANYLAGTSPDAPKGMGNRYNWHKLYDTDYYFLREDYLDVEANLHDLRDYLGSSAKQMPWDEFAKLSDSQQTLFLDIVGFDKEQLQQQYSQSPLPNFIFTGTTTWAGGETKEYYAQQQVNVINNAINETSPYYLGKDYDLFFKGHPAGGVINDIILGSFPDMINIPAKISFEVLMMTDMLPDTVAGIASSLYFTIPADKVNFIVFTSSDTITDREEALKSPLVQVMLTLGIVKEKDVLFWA


How the values were obtained:
Assay in all cases: apparent sialyltransferase kinetics
[1] = target: T1, His6-Pd2,6ST(16–497); format: biochemical; settings: read-out: His6-Pd2,6ST(16-497); acceptor; donor CMP-Neu5Ac; apparent value
[2] = target: Psp2,6ST(15–501)-His6 (Photobacterium sp. JT-ISH-224, UniProt A8QYL1); format: biochemical; settings: read-out: Psp2,6ST(15-501)-His6; acceptor; donor CMP-Neu5Ac; apparent value
[3] = substrate: Cc1cc(=O)oc2cc(O[C@@H]3O[C@H](CO)[C@@H](O[C@@H]4O[C@H](CO)[C@H](O)[C@H](O)[C@H]4O)[C@H](O)[C@H]3O)ccc12; format: biochemical, Photobacterium sp. JT-ISH-224; settings: acceptor; donor CMP-Neu5Ac; apparent value; pH 2.6

| Molecule | Km [1] [mM] | Km [2] [mM] | Km [3] [mM] | kcat [3] [s⁻¹] | kcat/Km [3] [M⁻¹ s⁻¹] |
| --- | --- | --- | --- | --- | --- |
| CC(=O)N[C@H]1[C@@H](O[C@H](C)[C@H](N)C(=O)O)O[C@H](CO)[C@H](O)[C@@H]1O [compound 13, GalNAcαThr] | 10 ± 1 | 5.9 ± 1.6 | – | – | – |
| CC(=O)N[C@H]1[C@@H](OC[C@H](N)C(=O)O)O[C@H](CO)[C@H](O)[C@@H]1O [compound 12, GalNAcαSer] | 1.6 ± 0.2 | 1.4 ± 0.1 | – | – | – |
| GalNAcα2AA [compound 11] | 51 ± 5 | 9.5 ± 2.7 | – | – | – |
| Psp2,6ST(15–501)-His6 (Photobacterium sp. JT-ISH-224) (protein) CNNSEENTQSIIKNDINKTIIDEEYVNLEPINQSNISFTKHSWVQTCGTQQLLTEQNKESISLSVVAPRLDDDEKYCFDFNGVSNKGEKYITKVTLNVVAPSLEVYVDHASLPTLQQLMDIIKSEEENPTAQRYIAWGRIVPTDEQMKELNITSFALINNHTPADLVQEIVKQAQTKHRLNVKLSSNTAHSFDNLVPILKELNSFNNVTVTNIDLYDDGSAEYVNLYNWRDTLNKTDNLKIGKDYLEDVINGINEDTSNTGTSSVYNWQKLYPANYHFLRKDYLTLEPSLHELRDYIGDSLKQMQWDGFKKFNSKQQELFLSIVNFDKQKLQNEYNSSNLPNFVFTGTTVWAGNHEREYYAKQQINVINNAINESSPHYLGNSYDLFFKGHPGGGIINTLIMQNYPSMVDIPSKISFEVLMMTDMLPDAVAGIASSLYFTIPAEKIKFIVFTSTETITDRETALRSPLVQVMIKLGIVKEENVLFWA | – | – | 0.36 ± 0.07 | 1.67 ± 0.167 | 4830 |
